Test results from paper PMC6792352, “Limited Chemical Structural Diversity Found to Modulate Thyroid Hormone Receptor in the Tox21 Chemical Library” (Environmental Health Perspectives, 2019).
Where a name gives a salt, the structure may show the parent alone. Read-outs that look alike come from different tables or passages of the source.

Assays:
[1] = tested on: thyroid hormone receptor (endogenous TRα and TRβ); experiment: GH3-TRE-Ag-Followup confirmation (TOX21_TR_LUC_GH3_Agonist_Followup, aeid 2226); assay type: cell-based, rat; settings: for GH3-TRE-Ag-Followup hitc: hit call from tcpl; for AC50: read-out: GH3-TRE-Ag-Followup AC50
in vitro = settings: rat, gh3-tre-luc cells
[2] = tested on: thyroid hormone receptor (TR); experiment: Classification of TR actives across characterization assays (TR-Ag / RXR-Ag; TR model binary); design: key to Categorization Code: FP, false positive; settings: for Categorization Code: TR agonist characterization
From the text: Active rate comparison between receptors. […]; [Kleinstreuer et al. 2017]). We first removed chemicals classified as pharmaceuticals because these sets of chemicals are biased toward drugs targeting estrogen receptors and androgen receptors. […]. For TR, we cross-referenced these same chemicals for testing against TR and used candidate chemicals in Tables 2 and 3 to define active rates.
Complete results from both GH3-TRE qHTS agonist, antagonist, and viability mode for the 8,305 compounds are provided in Excel Table S2. […]. […]. Together with some potential false negatives, these chemicals, totaling 84 in all, were screened for activity in a series of assays for confirmation in the GH3-TRE-Ag assay; specificity screening in the TRβ-UAS-bla HEK 293T and RXRα-UAS-bla HEK 293T mammalian one-hybrid assays; viability assays for the HEK293T parental cell line; and orthogonal screening in two TR:coactivator recruitment assays, TRa-coa and TRb-coa. […].

[3] = tested on: Tox21 cell viability assays (different cell types); experiment: Global cytotoxicity: eighteen Tox21 cell viability assays; assay type: cell-based
[4] = tested on: thyroid hormone receptor (endogenous TRα and TRβ); experiment: GH3-TRE-Ag primary qHTS, luciferase reporter, agonist mode (TOX21_TR_LUC_GH3_Agonist, aeid 803); assay type: cell-based, rat; settings: for GH3-TRE-Ag AC50 hitc: hit call from tcpl; for AC50: read-out: GH3-TRE-Ag AC50
human RXRα = target: T1, human RXRα (Homo sapiens, UniProt P19793); experiment: RXRa-bla-Ag mammalian one-hybrid beta-lactamase assay (TOX21_TR_RXR_BLA_Agonist_Followup_ratio, aeid 2253); assay type: cell-based; settings: for tr-followup-rxr-bla-agonist-1 hitc: hit call from tcpl; for Emax: read-out: EMax (% of Control) tr-followup-rxr-bla-agonist-1
T1 construct: host or cells: GeneBLAzer UAS-bla HEK 293T
T1 sequence (P19793 227-458 limits assumed): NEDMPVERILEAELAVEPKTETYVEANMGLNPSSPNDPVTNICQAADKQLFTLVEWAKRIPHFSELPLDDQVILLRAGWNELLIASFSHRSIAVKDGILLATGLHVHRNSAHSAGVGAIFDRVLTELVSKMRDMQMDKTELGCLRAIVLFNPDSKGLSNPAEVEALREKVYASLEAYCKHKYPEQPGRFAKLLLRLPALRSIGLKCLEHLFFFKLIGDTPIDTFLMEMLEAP

GH3-TRE-Luc cell line [5] = experiment: GH3-TRE-Via cell viability, CellTiter-Fluor (TOX21_TR_LUC_GH3_Antagonist_viability, aeid 805)
GH3-TRE-Luc cell line [6] = tested on: GH3-TRE-Luc cell line
[7] = target: T2, TRα ligand-binding domain (Homo sapiens, UniProt P10827); experiment: TRa-coa LanthaScreen TR-FRET coactivator (SRC-2 peptide) recruitment, agonist (TOX21_TRA_COA_Agonist_Followup_ratio, aeid 2230); assay type: biochemical; settings: for TRa-coa hitc: hit call from tcpl; for Emax: read-out: EMax (% of Control) tra-coa-agonist-followup-1
T2 construct: the receptor LBDs expressed as glutathione S-transferase (GST) fusion proteins; purchased
T2 sequence (P10827 163-410 isoform P10827-2 limits assumed, other chains not shown): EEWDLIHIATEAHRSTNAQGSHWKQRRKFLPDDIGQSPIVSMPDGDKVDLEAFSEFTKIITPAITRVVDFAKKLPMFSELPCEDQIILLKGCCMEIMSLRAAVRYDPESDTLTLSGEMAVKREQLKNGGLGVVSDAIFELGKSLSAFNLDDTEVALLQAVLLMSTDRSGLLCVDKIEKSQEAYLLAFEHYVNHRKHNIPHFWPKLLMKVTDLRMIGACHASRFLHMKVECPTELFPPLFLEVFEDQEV

[8] = target: T3, human TRβ ligand-binding domain (Homo sapiens, UniProt P10828); experiment: TRb-coa LanthaScreen TR-FRET coactivator (SRC-2 peptide) recruitment, agonist (TOX21_TRB_COA_Agonist_Followup_ratio, aeid 2244); assay type: biochemical; design: host or cells: GeneBLAzer UAS-bla HEK 293T; settings: for AC50 / TRb-coa hitc: agonist; for AC50: read-out: TRb-coa AC50; for TRb-coa hitc: hit call from tcpl; for Emax: read-out: EMax (% of Control) trb-coa-agonist-followup-1
T3 sequence (P10828 217-461 limits assumed): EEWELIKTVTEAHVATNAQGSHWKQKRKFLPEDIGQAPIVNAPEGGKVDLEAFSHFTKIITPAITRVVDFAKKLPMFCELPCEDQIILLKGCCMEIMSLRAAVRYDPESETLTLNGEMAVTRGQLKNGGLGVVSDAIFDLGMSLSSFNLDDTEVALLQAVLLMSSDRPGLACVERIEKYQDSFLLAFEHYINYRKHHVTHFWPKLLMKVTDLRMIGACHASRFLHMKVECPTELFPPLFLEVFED

[9] = target: T3, human TRβ ligand-binding domain; experiment: TRb-bla agonist mammalian one-hybrid beta-lactamase assay (TOX21_TRB_BLA_Agonist_Followup_ratio, aeid 2236); assay type: cell-based; design: host or cells: GeneBLAzer UAS-bla HEK 293T; settings: for AC50 / TRb-bla hitc: agonist; for AC50: read-out: TRb-bla AC50; for TRb-bla hitc: hit call from tcpl; for Emax: read-out: EMax (% of Control) trb-bla-agonist-followup-1
[10] = tested on: thyroid hormone receptor (endogenous TRα and TRβ); experiment: GH3-TRE-Antag primary qHTS, luciferase reporter, antagonist mode with 1 nM T3 (TOX21_TR_LUC_GH3_Antagonist, aeid 804); assay type: cell-based, rat
[11] = read-out: tr-followup-rxr-bla-agonist-1 AC50
[12] = Rattus norvegicus, read-out: TR_LUC_GH3_Antagonist_viability AC50 (uM)
[13] = agonist, read-out: TRa-coa AC50

Compound	EMax (% of Control) gh3-tre-agonist-followup-1_agonist [1]	GH3-TRE-Ag-Followup hitc [1]	CC50 at 24 h (in vitro; AC50 (uM) modified / 1000)	Categorization Code [2]	GLOBAL CYTOTOXICITY cytotox.median [3]	GLOBAL CYTOTOXICITY cytotox.number_Active [3]	EMax (% of Control) gh3-tre-agonist [4]	GH3-TRE-Ag AC50 hitc [4]	tr-followup-rxr-bla-agonist-1 hitc (human RXRα)	Emax (human RXRα)	AC50 (human RXRα; [11])	AC50 (GH3-TRE-Luc cell line [5]; [12])	TR_LUC_GH3_Antagonist_viability hitc (GH3-TRE-Luc cell line [6]; rat, 24 h)	AC50 [7, 13]	TRa-coa hitc ([7]; agonist)	Emax [7]	AC50 [8]	TRb-coa hitc [8]	Emax [8]	TRb-bla hitc [9]	also measured
Nc1ccc(S(=O)(=O)Nc2nccs2)cc1 [Sulfathiazole]	19.5 % of Control	0	> 50 µM	FP	>92	0	1.9 % of Control	0	0	30%	> 92 µM	> 92 µM	0	–	–	–	–	–	–	–	AC50 [4]: > 92 µM
O=c1[nH]cnc2c1ncn2[C@H]1CC[C@@H](CO)O1 [2',3'-Dideoxyinosine]	78.5 % of Control	1	> 100 µM	FP	>92	0	1.6 % of Control	0	0	-0.6%	> 92 µM	> 92 µM	0	> 92 µM	0	-0.5%	> 92 µM	0	-0.448%	1	AC50 [1]: 3.46 µM; AC50 [9]: 3.46 µM; Emax [9]: 74.4%; AC50 [4]: > 92 µM
CC[C@H](O)C(C[C@H](C)N(C)C)(c1ccccc1)c1ccccc1 [(-)-alpha-Methadol hydrochloride]	–	–	–	–	–	–	–	–	–	–	–	–	–	–	–	–	–	–	–	–	CC50 at 24 h (in vitro; AC50 (uM) modified / 1000, Tox21_110001=Tox21_112827, viability, 1 nM T3 present, 24 h): 43.2 µM; resp_max GH3-TRE-Antag ([10]; Table S8): 76.3; AC50 ([10]; Table S8, read-out: Average AC50 (uM) GH3-TRE-Antag): 58 µM; resp_max GH3-TRE-Via (GH3-TRE-Luc cell line [5]; Table S8): 67.0; AC50 (GH3-TRE-Luc cell line [5]; read-out: Average AC50 GH3-TRE-Via, Table S8, inactive set to 1000): 43.2 µM
CC(C)(c1ccc(O)cc1)c1ccc(O)cc1 [BPA, bisphenol A]	–	–	> 90 µM	–	–	–	–	–	–	–	–	–	–	–	–	–	–	–	–	–	activity in GH3-TRE antagonist mode assay [10]: active in suppressing the TR transactivation assay
C[C@H](CCC(=O)NCC(=O)O)[C@H]1CC[C@H]2[C@@H]3[C@H](O)C[C@@H]4C[C@H](O)CC[C@]4(C)[C@H]3C[C@H](O)[C@]12C [glycocholic acid]	34.6 % of Control	0	–	Equivocal RXR-Ag	–	0	27.2 % of Control	1	0	-1.3%	> 92 µM	> 92 µM	0	> 92 µM	0	-0.137%	> 92 µM	0	-0.225%	0	AC50 [9]: > 92 µM; Emax [9]: 14.8%; GLOBAL CYTOTOXICITY cytotox.median ([3]; median over Tox21 viability assays): >92; activity in GH3-TRE agonist assay [4]: active
N[C@@H](Cc1ccc(Oc2cc(I)c(O)c(I)c2)c(I)c1)C(=O)O [3,3',5'-Triiodo-L-thyronine]	87.2 % of Control	1	–	TR-Ag	>92	0	111.6 % of Control	1	0	–	> 92 µM	–	–	–	1	–	–	1	–	1	EMax (% of Control) tra-coa-agonist-followup-1 [7]: 152.6 % of Control; EMax (% of Control) trb-coa-agonist-followup-1 [8]: 117.6 % of Control; AC50 [1]: 0.537 µM; EMax (% of Control) trb-bla-agonist-followup-1 [9]: 93.8 % of Control; EMax (% of Control) tr-followup-rxr-bla-agonist-1 (human RXRα): 17.4 % of Control; AC50 (GH3-TRE-Luc cell line [5]; read-out: TR_LUC_GH3_Antagonist_viability AC50): > 92 µM; TR_LUC_GH3_Antagonist_viability hitc (GH3-TRE-Luc cell line [6]): 0
CCc1cc(OC)c(C[C@@H](C)N)cc1OC [(-)-2,5-Dimethoxy-4-ethylamphetamine hydrochloride]	–	–	–	–	–	–	–	–	–	–	–	–	–	–	–	–	–	–	–	–	resp_max GH3-TRE-Antag ([10]; Table S8): 85.7; resp_max GH3-TRE-Via (GH3-TRE-Luc cell line [5]; Table S8): 62.2
Cc1cc(NC(=O)C(=O)O)cc(C)c1Oc1ccc(O)c2c1CCC2 [CP-634384, reference compound]	103.7 % of Control	1	–	TR-Ag	>92	0	129.5 % of Control	1	1	–	–	–	–	–	1	–	–	–	–	–	EMax (% of Control) tra-coa-agonist-followup-1 [7]: 158.4 % of Control; AC50 ([7]; cell-free coactivator recruitment, read-out: TRa-coa-Ag AC50): 0.0029 µM; AC50 ([1]; confirmation, agonist mode): 0.018 µM; Classification ([2]; TR-Ag = TR agonist, RXR-Ag = RXR agonist): TR-Ag; AC50 [3]: > 92 µM; EMax (% of Control) tr-followup-rxr-bla-agonist-1 (human RXRα): 54.9 % of Control; AC50 (human RXRα; HEK 293T one-hybrid, agonist mode, inactive set to 1,000, read-out: RXRa-bla-Ag AC50): 44.3 µM; AC50 (GH3-TRE-Luc cell line [6]): > 92 µM; TR_LUC_GH3_Antagonist_viability hitc (GH3-TRE-Luc cell line [6]): 0
CCN(CC)C(=O)N[C@@H]1C=C2c3cccc4[nH]cc(c34)C[C@@H]2N(C)C1 [(-)-(5S,8R)-Lisuride]	–	–	–	–	–	–	–	–	–	–	–	–	–	–	–	–	–	–	–	–	resp_max GH3-TRE-Antag ([10]; Table S8): 34.7; resp_max GH3-TRE-Via (GH3-TRE-Luc cell line [5]; Table S8): 42.3
NCC(=O)CCC(=O)O [Aminolevulinic acid hydrochloride]	43.5 % of Control	1	> 50 µM	FP	>92	0	29.9 % of Control	1	0	13%	> 92 µM	> 92 µM	0	> 92 µM	0	1.1%	> 92 µM	0	3.6%	0	AC50 [1]: 22.5 µM; AC50 [9]: > 92 µM; Emax [9]: 12.7%
COc1ccc(OC)c(C(O)C(C)N)c1 (stereo not shown) [Methoxamine hydrochloride]	29.2 % of Control	1	> 50 µM	FP	>92	0	25.7 % of Control	1	0	-0.7%	> 92 µM	> 92 µM	0	> 92 µM	0	0.282%	> 92 µM	0	1.5%	0	AC50 [1]: 23.4 µM; AC50 [9]: > 92 µM; Emax [9]: 7.9%
